Columns and labels:
[1] = tested on: IL-1β secretion, human SV40 microglia cells; assay: IL-1β secretion by LPS-stimulated human SV40 microglia after pretreatment; type: cell-based; conditions: 50 micromolar concentration; pretreated two hours, then LPS stimulation; FIG. 2
Source text: Cultured human SV40 microglia cells were pretreated with eriodictyol (Erio) or nobiletin (Nobi) for two hours to determine the degree to which eriodictyol and nobiletin inhibits the secretion of the proinflammatory cytokine interleukin-1β(IL-1β) followed by stimulation by bacteria lipopolysaccharide (LPS).

[2] = Treatment of a subject with long-COVID syndrome (case report); type: in vivo, human; conditions: 60 mg per day (2 x 30 mg capsules) for three months; one subject
Experimental: A subject having a diagnosis of long-COVID syndrome was administered 60 milligrams (mg) eriodictyol (30 mg/vegetarian capsule; 2 capsules daily) per day for three months. The subject reported an over 80% reduction in long-covid symptoms that included a 80% reduction in fatigue, brain fog, difficulty concentrating, difficulty remembering, difficulty finding the right words, and difficulty multi-tasking.

Chikungunya virus = assay: Plaque reduction in human microglia cells infected with Chikungunya virus; conditions: 100 micromolar concentration; FIG. 1

Row | Structure (SMILES) | inhibition of IL-1β secretion compared with luteolin and methoxyluteolin [1] | reduction in fatigue, brain fog, difficulty concentrating, remembering, finding the right words and multi-tasking (subject-reported) [2] [%] | reduction in long-covid symptoms (subject-reported) [2] | potency of plaque inhibition compared with nobiletin (Chikungunya virus)
1 | O=C1C[C@@H](c2ccc(O)c(O)c2)Oc2cc(O)cc(O)c21 [eriodictyol, (2S)-2-(3,4-Dihydroxyphenyl)-5,7-dihydroxy-2,3-dihydro-4H-1-benzopyran-4-one] | more potent inhibitors of IL-1β secretion as compared to luteolin (Lut) and methoxyluteolin (Methlut) | 80 | over 80% | slightly more potent inhibitor than nobiletin
2 | COc1ccc(-c2cc(=O)c3c(OC)c(OC)c(OC)c(OC)c3o2)cc1OC [nobiletin, reference compound] | more potent inhibitors of IL-1β secretion as compared to luteolin (Lut) and methoxyluteolin (Methlut) | – | – | –

From patent US20230346741A1, “ERIODICTYOL COMPOSITIONS AND METHODS” (CAS PROPERTIES, LLC, priority 2022, published 2023)
